Laboratory results from patent US7955596B2 (priority 2003, dated 2011).
Read-outs that look alike come from different tables or passages of the source.

Legend:
B. anthracis strain 34F2 [1] = type: cell-based
[2] = test system: pag-lacZ (pagA protective antigen gene transcription); type: cell-based, B. anthracis
B. subtilis = conditions: cited from earlier work
[3] = test system: B. anthracis protective antigen (PA); type: cell-based
[4] = test system: AI-2-mediated quorum-sensing; conditions: cited from earlier work
[5] = test system: AI-2-mediated quorum-sensing; conditions: cited from earlier work; remark: listed apart in the source
[6] = test system: AI-1 and AI-2-mediated quorum-sensing pathways; conditions: cited from earlier work
[7] = test system: B. anthracis strain RBAF140; type: cell-based
B. anthracis strain 34F2 [8] = type: cell-based; remark: listed apart in the source

CCCCC1=CC(=C(Br)Br)OC1=O [furanone 2, 3-butyl-5-(dibromomethylene)-2-(5H)-furanone]
Inhibitory effect compared among furanones 1, 2 and 4 (B. anthracis strain 34F2 [1]): least

O=C1C=C(Br)/C(=C/Br)O1 [furanone 4, 4-bromo-5-(bromomethylene)-2(5H)-furanone]
Inhibitory effect compared among furanones 1, 2 and 4 (B. anthracis strain 34F2 [1]): most potent inhibitory effect

CCCCC1=C(Br)/C(=C/Br)OC1=O [furanone 1, (5Z)-4-bromo-5-(bromomethylene)-3-butyl-2(5H)-furanone]
Expression of pag-lacZ (β-gal activity) [2]: significantly reduced | Biofilm formation (B. subtilis): inhibit | Swarming (B. subtilis): inhibit | PA expression (Western blot) [3]: significant reduction | AI-2-mediated quorum-sensing [4]: inhibit | AI-2-mediated quorum-sensing [5]: inhibit | AI-1 and AI-2-mediated quorum-sensing pathways [6]: directly inhibit | Growth of RBAF140 (OD600) [7]: significant inhibition of growth | B. anthracis growth (OD600) (B. anthracis strain 34F2 [1]): dramatically inhibited | Bacterial growth (OD600) (B. anthracis strain 34F2 [1]): completely inhibited | Bacterial growth (OD600) with increasing concentration (B. anthracis strain 34F2 [1]): increasingly retarded | Bacterial growth (OD600) with increasing concentration, log phase cells (B. anthracis strain 34F2 [8]): increasingly retarded
